Earlier results in US20100047341A1, “COMBINED PREPARATION FOR THE TREATMENT OF CARDIOVASCULAR DISEASES BASED ON CHRONOTHERAPY THEORY” (HANALL PHARMACEUTICAL CO., LTD., priority 2006, published 2010).

time to maximum level in blood (losartan itself as active form released from the liver to blood)	time to maximum plasma concentration (after the conversion of losartan in the liver) [h]	Structure (SMILES)
an hour		CCCCc1nc(Cl)c(CO)n1Cc1ccc(-c2ccccc2-c2nn[nH]n2)cc1 [Losartan, 2-butyl-4chloro-1-[p-(o-1H-tetrazol-5-ylphenyl)benzyl]imidazole-5-methanol]
	3 to 4	CCCCc1nc(Cl)c(C(=O)O)n1Cc1ccc(-c2ccccc2-c2nn[nH]n2)cc1 [losartan carboxylate]
